These results are taken from patent publication US20040121947A1, “Compounds which inhibit beta-secretase activity and methods of use thereof” (Oklahoma Medical Research Foundation, priority 2000, published 2004).

The target in assay [1] is T1, memapsin 2 (Homo sapiens, UniProt P56817).
T1 construct: pET-11 vector-derived residues 1-15 of promemapsin 2-T1 (N, cleaved yes); made in house; host or cells: E. coli
The experiment in a line: Inhibition of memapsin 2 proteolytic activity, fluorogenic substrate FS-2. In kind it is biochemical. The conditions noted are these: for % Inhibition Mep2: enzyme concentration equals the compound concentration; for % Inh (M1/M2): ratio of % inhibition memapsin 1 / memapsin 2, 1 or less = greater inhibition of memapsin 2; for Vi/Vo: ratio of initial cleavage velocities of FS-2 with/without compound, enzyme and inhibitor concentrations equal (e.g., about 80 nM, 100 nM). The gist of the method:
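Spontaneously activated memapsin 2 (80 nM final) equilibrated with inhibitor (about 10 nM–10 μM) in 0.1 M NaOAc pH 4.0 with 10% DMSO for 20 min at 37 °C, with fluorogenic substrate FS-2. Ki converted from Ki apparent using substrate concentration and Km.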

Assay [2] deals with T2, memapsin 1 (Homo sapiens, UniProt Q9Y5Z0).
T2 construct: pET-11 vector-derived residues 1-14 of promemapsin 1-T1 (N, cleaved yes); made in house; host or cells: E. coli
T2 sequence (Q9Y5Z0 63-466 limits assumed): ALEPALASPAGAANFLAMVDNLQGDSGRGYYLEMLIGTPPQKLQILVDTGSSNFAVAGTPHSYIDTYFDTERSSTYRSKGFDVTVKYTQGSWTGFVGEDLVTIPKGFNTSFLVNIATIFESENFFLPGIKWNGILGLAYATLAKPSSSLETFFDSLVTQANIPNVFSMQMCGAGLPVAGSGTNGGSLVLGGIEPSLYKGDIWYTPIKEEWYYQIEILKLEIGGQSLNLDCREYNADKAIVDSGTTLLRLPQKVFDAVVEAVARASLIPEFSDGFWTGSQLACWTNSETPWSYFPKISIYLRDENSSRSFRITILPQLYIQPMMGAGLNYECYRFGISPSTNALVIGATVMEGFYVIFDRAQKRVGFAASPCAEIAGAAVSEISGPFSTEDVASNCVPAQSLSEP
The experiment in a line: Inhibition of memapsin 1 proteolytic activity, fluorogenic substrate FS-2. Conditions: for % Inhibition Mep1: enzyme concentration equals the compound concentration; for Ki: Table 9, read-out: Ki apparent Mep1. The format is biochemical. The protocol:
Vi/Vo depicts the ratio of initial cleavage velocities of the substrate FS-2 (Ermolieff, et al., Biochemistry […]:12450-12456 (2000)) by memapsin 1 or memapsin 2 in the absence (Vo) or presence (Vi) of a compound of the invention. […] The Vi/Vo values depicted in Table 1 were determined at conditions under which the enzyme and inhibitor concentrations were equal (e.g., about 80 nM, 100 nM).
The relationship of Ki (independent of substrate concentration) to Kiapp is a function of substrate concentration in the assay and the Km for cleavage of the substrate by either memapsin 1 or memapsin 2 by the relationship:
An aliquot of the inhibitor of known concentration in DMSO was diluted into 1.8 ml 0.1 M NaOAc, pH 4.0. DMSO and added to a final concentration of 10% (v/v), and memapsin 2 (final concentration of 80 nM), followed by a 20 minute equilibration at 37° C. Compounds were evaluated for the ability to inhibit memapsin 1 and memapsin 2 at concentrations between about 10 nM and about 10 μm of inhibitor.
The relationship of Ki (independent of substrate concentration) to Kiapp is a function of substrate concentration in the assay and the Km for cleavage of the substrate by either memapsin 1 or memapsin 2 by the relationship: […]

Where [3] appears, read: memapsin 2, apparent Ki in presence of substrate FS-2, read-out: Ki app.
Where [4] appears, read: memapsin 2, independent of substrate, converted from Ki apparent, read-out: Ki.
Setting [5] is: Table 9, read-out: Ki apparent Mep2.

Read-outs that look alike come from different tables or passages of the source.

T1 sequence (P56817 41-454 limits assumed): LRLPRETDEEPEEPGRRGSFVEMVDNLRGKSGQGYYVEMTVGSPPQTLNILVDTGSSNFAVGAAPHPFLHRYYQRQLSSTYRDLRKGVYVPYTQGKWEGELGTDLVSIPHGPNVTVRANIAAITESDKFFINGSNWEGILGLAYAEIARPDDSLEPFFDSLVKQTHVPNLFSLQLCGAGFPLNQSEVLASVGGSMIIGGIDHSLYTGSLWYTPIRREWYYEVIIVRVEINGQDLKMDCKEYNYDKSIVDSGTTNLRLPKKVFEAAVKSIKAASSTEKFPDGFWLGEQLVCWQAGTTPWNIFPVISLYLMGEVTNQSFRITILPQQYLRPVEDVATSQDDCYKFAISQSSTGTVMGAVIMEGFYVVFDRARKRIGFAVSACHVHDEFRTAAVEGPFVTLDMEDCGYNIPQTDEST

Regarding `CSCC[C@H](NC(=O)[C@@H](NC(=O)OC(C)(C)C)C(C)C)C(=O)N[C@@H](CC(C)C)[C@@H](O)C[C@@H](CO)C(=O)N[C@H](C(=O)NCc1ccccc1)C(C)C` [MMI-078], in assay [1] (listed as 78), the “% Inhibition Mep2” value stood at 37% and the “% Inh (M1/M2)” value was determined as 0.76. Moreover, the Vi/Vo in assay [1] is given as 0.63. Also, the “% Inhibition Mep1” value in assay [2] (listed as 78) is recorded as 28%.

Take `CSCC[C@H](NC(=O)[C@@H](NC(=O)OC(C)(C)C)C(C)C)C(=O)N[C@@H](CC(C)C)[C@@H](O)C[C@@H](C)C(=O)N[C@@H](CC(C)C)C(=O)NCc1ccco1` [MMI-116]: in assay [1], the “% Inhibition Mep2” value stood at 56%, the “% Inh (M1/M2)” value was 1.52 and the Vi/Vo turned out to be 0.29. Moreover, the Ki in assay [1] (setting [3]) turned out to be 49 nM. Besides, the Ki in assay [1] (setting [4]) turned out to be 30.6 nM. Also, the “% Inhibition Mep1” value in assay [2] is given as 85%.

Regarding `CSCC[C@H](NC(=O)[C@@H](NC(=O)OC(C)(C)C)C(C)C)C(=O)N[C@@H](CC(C)C)[C@@H](O)C[C@@H](CO)C(=O)N[C@H](C(=O)NCc1ccccc1)C(C)C` [MMI-132], in assay [1], the “% Inhibition Mep2” value turned out to be 47%, the “% Inh (M1/M2)” value is 1.30 and the Vi/Vo is 0.46. Besides, the Ki in assay [1] (setting [3]) amounted to 107 nM. In assay [1] (setting [4]), the Ki is 67.1 nM. In assay [2], the “% Inhibition Mep1” value worked out at 61%.

For `CSCC[C@H](NC(=O)[C@H](CC(C)C)NC(=O)OC(C)(C)C)C(=O)N[C@@H](CC(C)C)[C@@H](O)C[C@@H](C)C(=O)N[C@H](C(=O)NCC(C)C)C(C)C` [MMI-134], in assay [1], the “% Inhibition Mep2” value is reported as 81%. The results for the Ki in assay [1] (setting [3]) and in assay [1] (setting [4]) were 3.48 nM and 2.18 nM, respectively. The “% Inh (M1/M2)” value in assay [1] was determined as 1.21. The “% Inhibition Mep1” value in assay [2] was found to be 98%.

For `Cc1cc(C)n(COC(=O)N[C@@H](CCS(C)(=O)=O)C(=O)N[C@@H](CC(C)C)[C@@H](O)C[C@@H](C)C(=O)N[C@H](C(=O)NCc2ccccc2)C(C)C)n1` [MMI-139], in assay [1], the “% Inhibition Mep2” value was determined as 50%, the “% Inh (M1/M2)” value came out at 0 and the Vi/Vo is given as 0.5. In addition, in assay [2], the “% Inhibition Mep1” value came out at 0%.

With `CSCC[C@H](NC(=O)OCn1nc(C)cc1C)C(=O)N[C@@H](CC(C)C)[C@@H](O)C[C@@H](C)C(=O)N[C@H](C(=O)NCC(C)C)C(C)C` [MMI-156], in assay [1], the “% Inhibition Mep2” value was 68%, the “% Inh (M1/M2)” value worked out at 0.47 and the Vi/Vo was 0.32. Besides, in assay [1] (setting [3]), the Ki was 3.03 nM. Besides, the Ki in assay [1] (setting [4]) came to 1.89 nM. For the same molecule, the “% Inhibition Mep1” value in assay [2] turned out to be 32%.

For the molecule `CCCCNC(=O)[C@@H](NC(=O)[C@H](C)C[C@H](O)[C@H](CC(C)C)NC(=O)[C@H](CCSC)NC(=O)OCn1nc(C)cc1C)C(C)C` [MMI-167], in assay [1], the “% Inhibition Mep2” value is given as 44%, the “% Inh (M1/M2)” value was 0.18 and the Vi/Vo stood at 0.56. Also, the Ki in assay [1] (setting [3]) worked out at 36.6 nM. The Ki in assay [1] (setting [4]) is 22.8 nM. Further, the “% Inhibition Mep1” value in assay [2] came out at 8%.

In the case of `CSCC[C@H](NC(=O)OCn1nc(C)cc1C)C(=O)N[C@@H](CC(C)C)[C@@H](O)C[C@@H](C)C(=O)N[C@@H](CC(C)C)C(=O)NC(CF)CF` [MMI-171], in assay [1], the “% Inhibition Mep2” value is recorded as 45%, the “% Inh (M1/M2)” value is 0.18 and the Vi/Vo turned out to be 0.55. Further, the Ki in assay [1] (setting [3]) came to 63.9 nM. Further, in assay [1] (setting [4]), the Ki came out at 40 nM. Also, in assay [2], the “% Inhibition Mep1” value is listed as 8%.

Turning to `CSCC[C@H](NC(=O)OCCn1nc(C)cc1C)C(=O)N[C@@H](CC(C)C)[C@@H](O)C[C@@H](C)C(=O)N[C@@H](CC(C)C)C(=O)NCC(C)C` [MMI-176], in assay [1], the “% Inhibition Mep2” value was found to be 47%, the “% Inh (M1/M2)” value stood at 0 and the Vi/Vo worked out at 1. The Ki in assay [1] (setting [3]) stood at 111 nM. For the same molecule, in assay [1] (setting [4]), the Ki is 69.1 nM. Moreover, the “% Inhibition Mep1” value in assay [2] is listed as 0%.

In the case of `CSCC[C@H](NC(=O)OCCn1nc(C(C)C)cc1C(C)C)C(=O)N[C@@H](CC(C)C)[C@@H](O)C[C@@H](C)C(=O)N[C@H](C(=O)NCC(C)C)C(C)C` [MMI-180], in assay [1], the “% Inhibition Mep2” value is on record as 26%, the “% Inh (M1/M2)” value is listed as 0 and the Vi/Vo was determined as 0.74. For the same molecule, the “% Inhibition Mep1” value in assay [2] is on record as 0%.

With `CSCC[C@H](NC(=O)OCn1nc(C)cc1C)C(=O)N[C@@H](CC(C)C)[C@@H](O)C[C@]1(C)CCN([C@@H](CC(C)C)C(=O)NCC(C)C)C1=O` [MMI-181], in assay [1], the “% Inhibition Mep2” value worked out at 47%, the “% Inh (M1/M2)” value is 0.19 and the Vi/Vo was 0.53. Besides, the Ki in assay [1] (setting [3]) was 393 nM. Also, the Ki in assay [1] (setting [4]) is 246 nM. Also, the “% Inhibition Mep1” value in assay [2] amounted to 9%.

`CCCCNC(=O)[C@H](C(C)C)N1CC[C@@](C)(C[C@H](O)[C@H](CC(C)C)NC(=O)[C@H](CCSC)NC(=O)OCn2nc(C)cc2C)C1=O` [MMI-182] displayed a Ki in assay [1] (Ki, [I] < 100, memapsin 2, [I] < 100 (nM)) of 72.7 nM. In assay [1], the “% Inhibition Mep2” value was 34%, the “% Inh (M1/M2)” value is given as 0 and the Vi/Vo is 0.66. Also, the Ki in assay [1] (setting [3]) came to 447 nM. Also, in assay [1] (setting [4]), the Ki came to 280 nM. Also, in assay [2], the “% Inhibition Mep1” value was found to be 0%.

As to `CSCC[C@H](NC(=O)C(C)Cn1nc(C)cc1C)C(=O)N[C@@H](CC(C)C)[C@@H](O)C[C@@H](C)C(=O)N[C@H](C(=O)NCC(C)C)C(C)C` (some centres unmarked) [MMI-196], the Ki in assay [1] (setting [5]) worked out at 28.8 nM; in assay [1] (setting [3]), 28.8 nM; in assay [1] (setting [4]) it was 18 nM; in assay [2], 351 nM.

In the case of `CSCC[C@H](NC(=O)C(Cn1nc(C)cc1C)C(C)C)C(=O)N[C@@H](CC(C)C)[C@@H](O)C[C@@H](C)C(=O)N[C@H](C(=O)NCC(C)C)C(C)C` (some centres unmarked) [MMI-204], the Ki in assay [1] (setting [5]) turned out to be 27.4 nM; in assay [1] (setting [3]) it was 27.4 nM; in assay [1] (setting [4]), 17.1 nM; in assay [2], 1030 nM.
